Each block holds one compound with its values, some of them ahead of it. Activity calls are given as the source filed them. The rule behind the calls is not given here.
What was measured:
[1] = organism: Mus musculus; assay: Toxicity in C57BL/6 mouse treated upto 6 weeks; type: organism-based; details: in vivo, 1008 h
[2] = molecular target: T1, Glucagon-like peptide 1 receptor (Rattus norvegicus, UniProt P32301); assay: (§1) Agonist activity at rat GLP1 receptor expressed in HEK293 cells assessed as cAMP release; type: functional, cell-based
T1 sequence (P32301 whole entry): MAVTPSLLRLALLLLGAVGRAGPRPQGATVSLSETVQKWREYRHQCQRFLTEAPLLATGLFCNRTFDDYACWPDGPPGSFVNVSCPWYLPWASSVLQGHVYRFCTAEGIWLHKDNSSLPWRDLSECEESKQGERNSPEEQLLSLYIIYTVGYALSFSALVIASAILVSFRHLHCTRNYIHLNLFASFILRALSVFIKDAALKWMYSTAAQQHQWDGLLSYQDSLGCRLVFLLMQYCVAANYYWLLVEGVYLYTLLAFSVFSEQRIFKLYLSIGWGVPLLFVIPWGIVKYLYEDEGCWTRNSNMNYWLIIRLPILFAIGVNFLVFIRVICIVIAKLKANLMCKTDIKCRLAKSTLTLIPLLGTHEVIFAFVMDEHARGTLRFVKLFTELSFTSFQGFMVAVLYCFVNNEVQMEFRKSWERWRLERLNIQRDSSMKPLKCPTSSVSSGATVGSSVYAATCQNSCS

[3] = organism: Mus musculus; assay: Effect on glycemia in C57BL/6-m+/+Leprdb mouse assessed as HbA1c normalization at 1 mg; type: functional, organism-based
[4] = organism: Mus musculus; assay: Effect on glycemia in C57BL/6-m+/+Leprdb mouse assessed as HbA1c normalization at 2 mg; type: functional, organism-based
[5] = molecular target: T2, Glucagon-like peptide 1 receptor (Rattus norvegicus) (UniProt P32301); assay: Reversal of agonist activity at rat GLP1 receptor expressed in HEK293 cells assessed as luciferase activity at 10 uM in presence of exendin; type: functional, cell-based
T2 sequence (whole entry): T1 sequence (P32301 whole entry)

[6] = molecular target: T2, Glucagon-like peptide 1 receptor (Rattus norvegicus); assay: Agonist activity at rat GLP1 receptor expressed in HEK293 cells assessed as luciferase activity upto 10 uM relative to GLP1; type: functional, cell-based
[7] = test system: Mus musculus; assay: Decrease in HbA1c levels in ip dosed C57BL/6-m+/+Leprdb mouse at 8 mg, ip; type: functional, organism-based
[8] = organism: Mus musculus; assay: Decrease in high density lipoprotein in C57BL/6-m+/+Leprdb mouse at 2 mg; type: functional, organism-based
[9] = organism: Mus musculus; assay: Decrease in fasting insulin in C57BL/6-m+/+Leprdb mouse at 1 mg; type: functional, organism-based
[10] = organism: Mus musculus; assay: Effect on glucose excursion in C57BL/6-m+/+Leprdb mouse assessed as glucose tolerance normalization at 2 mg; type: functional, organism-based
[11] = molecular target: Glucagon-like peptide 1 receptor (Homo sapiens) (UniProt P43220); assay: Activity at human GLP1 receptor expressed in HEK293 cells; type: cell-based
Chain of Glucagon-like peptide 1 receptor (Homo sapiens) (P43220 whole entry): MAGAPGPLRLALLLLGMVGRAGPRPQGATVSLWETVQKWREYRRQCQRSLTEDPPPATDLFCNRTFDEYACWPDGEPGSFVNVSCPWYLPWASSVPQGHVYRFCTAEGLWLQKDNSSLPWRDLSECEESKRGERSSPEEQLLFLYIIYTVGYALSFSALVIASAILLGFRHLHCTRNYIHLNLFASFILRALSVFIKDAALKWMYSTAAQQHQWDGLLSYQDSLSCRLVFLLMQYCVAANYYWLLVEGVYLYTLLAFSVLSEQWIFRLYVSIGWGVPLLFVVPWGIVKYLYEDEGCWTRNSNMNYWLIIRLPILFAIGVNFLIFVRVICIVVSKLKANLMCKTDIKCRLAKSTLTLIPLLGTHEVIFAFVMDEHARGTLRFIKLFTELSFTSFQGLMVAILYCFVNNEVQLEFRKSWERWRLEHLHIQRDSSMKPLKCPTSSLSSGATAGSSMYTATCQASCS

[12] = test system: Mus musculus; assay: Decrease in HbA1c levels in C57BL/6-m+/+Leprdb mouse at 2 mg, ip; type: functional, organism-based
[13] = test system: Mus musculus; assay: Suppression of food intake in po dosed C57BL/6 mouse after 2 hrs; type: functional
[14] = test system: Mus musculus; assay: Decrease in food intake in ip dosed C57BL/6-m+/+Leprdb mouse; type: functional; design: scale not given: the % may be the effect or the level left
[15] = molecular target: T2, Glucagon-like peptide 1 receptor (Rattus norvegicus); assay: Reversal of agonist activity at rat GLP1 receptor expressed in HEK293 cells assessed as luciferase activity at 0.05 uM in presence of exendin; type: functional, cell-based
[16] = organism: Mus musculus; assay: Effect on glycemia in C57BL/6-m+/+Leprdb mouse assessed as fasting glucose normalization at 2 mg; type: functional, organism-based
[17] = test system: Mus musculus; assay: Suppression of food intake in C57BL/6 mouse at 2 mg, ip after 12 hrs; type: functional
[18] = test system: Mus musculus; assay: Reversal of suppression of food intake in po dosed C57BL/6 mouse after 2 hrs in presence of exendin; type: functional, organism-based
[19] = molecular target: T1, Glucagon-like peptide 1 receptor; assay: (§2) Displacement of [125I]GLP1 from rat GLP1 receptor expressed in HEK293 cells; type: cell-based
[20] = test system: Mus musculus; assay: Reversal of suppression of food intake in ip dosed C57BL/6 mouse after 12 hrs in presence of exendin; type: functional, organism-based
[21] = Terminal half life in C57BL/6 mouse at 2 mg, ip; type: ADME, organism-based; details: in vivo
[22] = organism: Mus musculus; assay: Decrease in fasting insulin in C57BL/6-m+/+Leprdb mouse at 2 mg; type: functional, organism-based
[23] = Induction of glucose-induced insulin release in Sprague-Dawley rat islets at 10 uM relative to control; type: functional
[24] = test system: Mus musculus; assay: Suppression of food intake in ip dosed C57BL/6 mouse after 12 hrs; type: functional
[25] = test system: Mus musculus; assay: Decrease in HbA1c levels in C57BL/6-m+/+Leprdb mouse at 1 mg, ip; type: functional, organism-based
[26] = organism: Mus musculus; assay: Effect on glycemia in C57BL/6-m+/+Leprdb mouse assessed as fasting glucose normalization at 1 mg; type: functional, organism-based
[27] = organism: Mus musculus; assay: Decrease in total cholesterol in C57BL/6-m+/+Leprdb mouse at 2 mg; type: functional, organism-based
[28] = test system: HEK293; assay: Toxicity in HEK293 cells upto 300 uM by MTT assay; type: cell-based; details: human
[29] = molecular target: T2, Glucagon-like peptide 1 receptor (Rattus norvegicus); assay: Agonist activity at rat GLP1 receptor expressed in HEK293 cells assessed as luciferase activity; type: functional, cell-based
[30] = molecular target: T2, Glucagon-like peptide 1 receptor (Rattus norvegicus); assay: as §1; type: functional, cell-based
[31] = molecular target: T2, Glucagon-like peptide 1 receptor (Rattus norvegicus); assay: as §2; type: cell-based
[32] = Induction of glucose-induced insulin release in Sprague-Dawley rat islets at 100 uM relative to control; type: functional

EC50 [2]: 2730 nM
Activity [5]: Active
Activity [6]: Active
Activity [11]: inactive
Activity [15]: Active
Ki [19]: 1470 nM
half-life [21]: 7.5 h
Structure (SMILES): COc1cc(C2C(NC(=O)c3ccc(NC(=O)OC(C)(C)C)cc3)(C(=O)O)C(c3ccc(OC(=O)c4cccs4)c(OC)c3)C2(NC(=O)c2ccc(NC(=O)OC(C)(C)C)cc2)C(=O)O)ccc1OC(=O)c1cccs1 (stereo not drawn)
Activity [1]: Non-toxic
Activity [3]: Active
Activity [4]: Active
Activity [7]: Active
Activity [8]: Active
Activity [9]: Active
Activity [10]: Active
Activity [12]: Active
ED50 [13]: 0.53 mg
Activity [14]: 24.9%
Activity [16]: Active
Activity [17]: 54%
Activity [18]: Active
Activity [20]: Active
Activity [22]: Active
fold change (FC) [23]: 4.5
ED50 [24]: 1.57 mg
Activity [25]: Active
Activity [26]: Active
Activity [27]: Active
Activity [28]: Non-toxic

Activity [29]: Active
Activity [30]: Active
Activity [31]: Active
Structure (SMILES): CCOc1cc(/C=C2\N=C(c3ccc(NC(C)=O)cc3)OC2=O)ccc1OC(=O)c1cccs1

EC50 [2]: 1080 nM
Activity [5]: Active
Activity [6]: 37%
Activity [11]: inactive
Activity [15]: Active
Ki [19]: 287 nM
Structure (SMILES): COc1cc(C2C(NC(=O)c3ccc(NC(=O)C4CCCC4)cc3)(C(=O)O)C(c3ccc(OC(=O)c4cccs4)c(OC)c3)C2(NC(=O)c2ccc(NC(=O)C3CCCC3)cc2)C(=O)O)ccc1OC(=O)c1cccs1 (stereo not drawn)
fold change (FC) [32]: 2.6

Source: ChEMBL document CHEMBL1156434, “A nonpeptidic agonist of glucagon-like peptide 1 receptors with efficacy in diabetic db/db mice” (Proc Natl Acad Sci U S A, 2007)
